Source: patent publication US20250034194A1, “INHIBITORS OF ABNORMAL PHOSPHORYLATION AND TAU PROTEIN AGGREGATION” (UNIVERSITE DE PICARDIE JULES VERNE, priority 2021, published 2025)

How the values were obtained:
[1] = system: tau phosphorylation (S262 site) in cortical cells of rTg4510 mice (human tau P301L); assay: In cellulo tau phosphorylation test in cortical cells of rTg4510 mice; assay type: cell-based; conditions: 24 h
From the text: Cortical cells from rTg4510 mice mutated for human tau protein (P301 L) were used as a model of primary cells expressing a tauopathy without induction by an effector, unlike the previous cellular model (Santa Cruz et al., Science, 2005).
Cortical cells are extracted from mouse embryos expressing the P301L mutation at stage E16 and cultured in a 6-well plate. On day 14 (moderate tau phosphorylation) or day 18 (severe tau phosphorylation), cells extracted from the same embryo are placed in the presence of the Mal16diS molecule at different concentrations (0.1 or 1 μg/mL), in a final volume of 2 mL simultaneously with a well of cells from the same embryo not receiving molecules for 24 h. After 24 h of treatment with the molecules, the cells are rinsed with 1×PBS then lysed and recovered in RIPA buffer (Thermo Fischer). The protein extracts from the cells (10 μg) are then analysed by western blot according to the same procedure described above.
The tau phosphorylation site studied here is the S262 site (Thermo Fisher), normalized to the expression of total tau protein (K9JA, Dako). The bands are quantified using the Odyssey software of the LI-COR device allowing the p-tau/tau ratio to be calculated for each of the conditions. The ratio obtained for each concentration of molecule is then expressed as a percentage of the ratio obtained for cells not treated by the molecules. Thus a value less than 100% corresponds to protection provided by the molecules in this cellular model of expression of tau phosphorylation. The experiment was repeated at least three times for each dose of “Mal16diS” molecule. The mean and standard deviation of the replicates are shown in FIGS. 17 and 18; each of the values obtained for each dose is compared to that of the cells without addition of the molecule, with a t-test. Statistical differences with p-value <0.01 and <0.001 are represented by “**” and “***” respectively.

[2] = system: tau phosphorylation (S262 site) in SH-SY5Y cells; assay: In cellulo tau phosphorylation test in the SH-SY5Y line (H2O2 stress induction); assay type: cell-based; conditions: 24 hours, then H2O2
Experimental: The tau phosphorylation induction model on the SH-SY5Y cell line described in the Gly-CRRET laboratory article was used here (Sepulveda-Diaz et al., 2015).
In short, SH-SY5Y cells are seeded in 6-well plates and differentiated using retinoic acid (10 μM, Sigma Aldrich) for 5 days. On day 6, the cells are placed in the presence of the Mal16diS and Mal18diS molecules at different concentrations (1, 10 or 100 μg/mL), in a final volume of 2 mL simultaneously with a well not receiving molecules. After 24 hours, the molecules are removed and the stress inducer (H2O2, Sigma Aldrich) is added to the cell medium for 30 minutes. The cells are then rinsed with 1×PBS then lysed and recovered in RIPA buffer (Thermo Fisher). The protein extracts from the cells (10 μg) are then analysed by western blot according to the same procedure described above.
The tau phosphorylation site studied here is the S262 site (Thermo Fisher), normalized to the expression of the GAPDH protein (Sigma Aldrich). The bands are quantified using the Odyssey software of the LI-COR device allowing the p-tau/GAPDH ratio to be calculated for each of the conditions. The ratio obtained for each concentration of molecule is then expressed as a percentage of the ratio obtained for the control cells, i.e., not treated by the molecules. Thus a value less than 100% corresponds to protection provided by the molecules in this cellular model of tau phosphorylation induction.
The experiment was repeated at least 4 times for each molecule dose for the “Mal16diS” and “Mal18diS” molecules and at least twice for the “Cell16diS” and “Lac16diS” molecules. The mean and standard deviation of the replicates are shown in FIGS. 13 to 16; each of the values obtained for each dose is compared to that of the control without addition of molecule by means of a t-test. Statistical differences with p-value <0.05 and <0.001 are represented by “*” and “***” respectively.

For `CCCCCCCCCCCCCCCCNC(=O)[C@H](O)[C@@H](O)[C@H](O[C@H]1OC(COS(=O)(=O)[O-])[C@@H](O)C(O)[C@@H]1O)[C@H](O)COS(=O)(=O)[O-].[Na+].[Na+]` (stereo partly drawn) [Mal16diS, N-Hexadecyl-6,6′-Di-O-Sulfo-D-Maltobioamide Disodium], the “reduction in tau phosphorylation (S262, p-tau/tau) compared to untreated cells” value ([1]; moderate phosphorylation (D14), 0.1 μg/mL) was 48%, the “reduction in tau phosphorylation (S262, p-tau/tau) compared to untreated cells” value ([1]; moderate phosphorylation (D14), 1 μg/mL) was 64% and the “reduction in tau phosphorylation (S262, p-tau/tau) compared to untreated cells” value ([1]; severe phosphorylation (D18), 0.1 μg/mL) was 39%. For the same molecule, the “reduction in tau phosphorylation (S262, p-tau/tau) compared to untreated cells” value ([1]; severe phosphorylation (D18), 1 μg/mL) was 53%, the “reduction in tau phosphorylation (S262, p-tau/GAPDH) compared to untreated cells” value ([2]; 1 μg/mL) was 30% and the “reduction in tau phosphorylation (S262, p-tau/GAPDH) compared to untreated cells” value ([2]; 10 μg/mL) was 40%.
